From patent publication US10072011B2, “Substituted bridged urea analogs as sirtuin modulators” (GlaxoSmithKline Intellectual Property (No.2) Limited, priority 2014, dated 2018) come the findings set out here.

Some results are limits rather than exact numbers.

For the assay, the target named is T1, SIRT1 (Homo sapiens, UniProt Q96EB6).
T1 sequence (Q96EB6 1-747): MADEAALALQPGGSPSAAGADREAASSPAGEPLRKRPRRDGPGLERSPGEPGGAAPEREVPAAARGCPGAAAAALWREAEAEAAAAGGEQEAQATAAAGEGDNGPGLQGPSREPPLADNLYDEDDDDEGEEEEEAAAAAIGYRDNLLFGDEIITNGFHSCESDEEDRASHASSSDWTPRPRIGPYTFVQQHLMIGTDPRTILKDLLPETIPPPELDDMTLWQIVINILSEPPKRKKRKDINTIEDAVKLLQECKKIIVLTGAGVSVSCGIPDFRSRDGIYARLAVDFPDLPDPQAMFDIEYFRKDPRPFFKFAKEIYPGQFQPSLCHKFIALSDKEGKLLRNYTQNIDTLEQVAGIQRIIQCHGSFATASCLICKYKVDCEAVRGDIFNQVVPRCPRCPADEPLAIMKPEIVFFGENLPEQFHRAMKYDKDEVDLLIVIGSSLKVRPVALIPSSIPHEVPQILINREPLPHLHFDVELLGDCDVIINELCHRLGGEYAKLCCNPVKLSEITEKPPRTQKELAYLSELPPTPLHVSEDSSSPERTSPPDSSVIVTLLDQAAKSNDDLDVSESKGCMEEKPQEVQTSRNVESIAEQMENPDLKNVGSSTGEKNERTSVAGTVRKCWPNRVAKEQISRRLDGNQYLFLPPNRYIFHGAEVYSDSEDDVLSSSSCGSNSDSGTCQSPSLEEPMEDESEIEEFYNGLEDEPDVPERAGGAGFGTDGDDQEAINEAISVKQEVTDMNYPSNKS
The experiment in a line: Trp mass spectrometry assay of SIRT1 activation (Ac-R-H-K-K(Ac)-W-NH2 peptide). It is filed as biochemical. The conditions noted are these: Trp peptide 0.5 μM, 120 μM βNAD+, 10 nM SIRT1, 25 min at 25° C.; for Emax: 25 min, relative to control (100%), read-out: TRP MAX RESP (percent maximum fold activation). Summed up:
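Mass spectrometry read-out (OAADPR formed, or deacetylated Trp peptide) after a 25 min NAD-dependent deacetylation by E. coli-expressed His-SIRT1, stopped with formic acid.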

`O=C(NCC(F)(F)F)c1ccc2c(n1)N(C(=O)Nc1ccc3[nH]cnc3c1)[C@H]1CCN2C1` [Example 231, (4S)—N5-(1H-benzo[d]imidazol-5-yl)-N7-(2,2,2-trifluoroethyl)-3,4-dihydro-1,4-methanopyrido[2,3-b][1,4]diazepine-5,7(2H)-dicarboxamide]: the Emax was greater than 150% and the “TRP Activity (EC1.5, concentration of test compound that results in 150% activation of SIRT1)” value is listed as “B (EC1.5 1-25 μM)”.
The like results for `O=C(NCC(F)(F)F)c1ccc2c(n1)N(C(=O)Nc1ccc3[nH]c(=O)[nH]c3c1)[C@H]1CCN2C1` [Example 232, (4S)—N5-(2-oxo-2,3-dihydro-1H-benzo[d]imidazol-5-yl)-N7-(2,2,2-trifluoroethyl)-3,4-dihydro-1,4-methanopyrido[2,3-b][1,4]diazepine-5,7(2H)-dicarboxamide] were, in that order, less than 150% and “C (EC1.5>25 μM)”.
For the compound `C[C@@H](NC(=O)c1ccc2c(n1)N(C(=O)Nc1ccc(OC[C@@H](O)CO)nn1)[C@H]1CCN2C1)C(F)(F)F` [Example 234, (4S)—N5-(6-((S)-2,3-dihydroxypropoxy)pyridazin-3-yl)-N7-((R)-1,1,1-trifluoropropan-2-yl)-3,4-dihydro-1,4-methanopyrido[2,3-b][1,4]diazepine-5,7(2H)-dicarboxamide], the Emax was greater than 150% and the “TRP Activity (EC1.5, concentration of test compound that results in 150% activation of SIRT1)” value is “A (EC1.5<1 μM)”.
In the case of `O=C(NCc1cccc(F)c1)c1ccc2c(n1)N(C(=O)Nc1ccccn1)[C@H]1CCN2C1` [Example 236, (4S)—N7-(3-fluorobenzyl)-N5-(pyridin-2-yl)-3,4-dihydro-1,4-methanopyrido[2,3-b][1,4]diazepine-5,7(2H)-dicarboxamide], the Emax was greater than 150% and the “TRP Activity (EC1.5, concentration of test compound that results in 150% activation of SIRT1)” value is “A (EC1.5<1 μM)”.
For `C[C@@H](NC(=O)c1ccc2c(n1)N(C(=O)Nc1cnccn1)[C@H]1CCN2C1)C(F)(F)F` [Example 237, (4S)—N5-(pyrazin-2-yl)-N7-((R)-1,1,1-trifluoropropan-2-yl)-3,4-dihydro-1,4-methanopyrido[2,3-b][1,4]diazepine-5,7(2H)-dicarboxamide], in that order: greater than 150% and “A (EC1.5<1 μM)”.
The like results for `Cc1cc(NC(=O)N2c3nc(C(=O)N[C@H](C)C(F)(F)F)ccc3N3CC[C@H]2C3)ncc1F` [Example 238, (4S)—N5-(5-fluoro-4-methylpyridin-2-yl)-N7-((R)-1,1,1-trifluoropropan-2-yl)-3,4-dihydro-1,4-methanopyrido[2,3-b][1,4]diazepine-5,7(2H)-dicarboxamide] were, in that order, greater than 150% and “A (EC1.5<1 μM)”.
For `C[C@@H](NC(=O)c1ccc2c(n1)N(C(=O)Nc1ncc(F)cc1F)[C@H]1CCN2C1)C(F)(F)F` [Example 239, (4S)—N5-(3,5-difluoropyridin-2-yl)-N7-((R)-1,1,1-trifluoropropan-2-yl)-3,4-dihydro-1,4-methanopyrido[2,3-b][1,4]diazepine-5,7(2H)-dicarboxamide], the Emax was greater than 150% and the “TRP Activity (EC1.5, concentration of test compound that results in 150% activation of SIRT1)” value is recorded as “B (EC1.5 1-25 μM)”.
For `O=C(NCc1ccc(F)cc1)c1ccc2c(n1)N(C(=O)Nc1cc(OC[C@H](O)CO)ccn1)[C@H]1CCN2C1` [Example 240, (4S)—N5-(4-((R)-2,3-dihydroxypropoxy)pyridin-2-yl)-N7-(4-fluorobenzyl)-3,4-dihydro-1,4-methanopyrido[2,3-b][1,4]diazepine-5,7(2H)-dicarboxamide], in that order: greater than 150% and “A (EC1.5<1 μM)”.
The like results for `O=C(NC1(C(F)(F)F)CC1)c1ccc2c(n1)N(C(=O)Nc1ccccn1)[C@H]1CCN2C1` [Example 241, (4S)—N5-(pyridin-2-yl)-N7-(1-(trifluoromethyl)cyclopropyl)-3,4-dihydro-1,4-methanopyrido[2,3-b][1,4]diazepine-5,7(2H)-dicarboxamide] were, in that order, greater than 150% and “A (EC1.5<1 μM)”.
For `C[C@@H](NC(=O)c1ccc2c(n1)N(C(=O)Nc1nccc(OC[C@H](O)CO)n1)[C@H]1CCN2C1)C(F)(F)F` [Example 244, (4S)—N5-(4-((R)-2,3-dihydroxypropoxy)pyrimidin-2-yl)-N7-((R)-1,1,1-trifluoropropan-2-yl)-3,4-dihydro-1,4-methanopyrido[2,3-b][1,4]diazepine-5,7(2H)-dicarboxamide], in that order: greater than 150% and “A (EC1.5<1 μM)”.
`O=C(NC1CC(F)(F)C1)c1ccc2c(n1)N(C(=O)Nc1ccccn1)[C@H]1CCN2C1` [Example 246, (4S)—N7-(3,3-difluorocyclobutyl)-N5-(pyridin-2-yl)-3,4-dihydro-1,4-methanopyrido[2,3-b][1,4]diazepine-5,7(2H)-dicarboxamide]: the Emax was greater than 150% and the “TRP Activity (EC1.5, concentration of test compound that results in 150% activation of SIRT1)” value is “A (EC1.5<1 μM)”.
As for `Cc1cccnc1NC(=O)N1c2nc(C(=O)N[C@H](C)C(F)(F)F)ccc2N2CC[C@H]1C2` [Example 247, (4S)—N5-(3-methylpyridin-2-yl)-N7-((R)-1,1,1-trifluoropropan-2-yl)-3,4-dihydro-1,4-methanopyrido[2,3-b][1,4]diazepine-5,7(2H)-dicarboxamide], the Emax was greater than 150% and the “TRP Activity (EC1.5, concentration of test compound that results in 150% activation of SIRT1)” value was “B (EC1.5 1-25 μM)”.
In the case of `O=C(NC1CC1)c1ccc2c(n1)N(C(=O)Nc1cc(OC[C@@H](O)CO)ccn1)[C@H]1CCN2C1` [Example 250, (4S)—N7-cyclopropyl-N5-(4-((S)-2,3-dihydroxypropoxy)pyridin-2-yl)-3,4-dihydro-1,4-methanopyrido[2,3-b][1,4]diazepine-5,7(2H)-dicarboxamide], the Emax was greater than 150% and the “TRP Activity (EC1.5, concentration of test compound that results in 150% activation of SIRT1)” value was “A (EC1.5<1 μM)”.
For `C[C@@H](NC(=O)c1ccc2c(n1)N(C(=O)Nc1ccon1)[C@H]1CCN2C1)C(F)(F)F` [Example 251, (4S)—N5-(isoxazol-3-yl)-N7-((R)-1,1,1-trifluoropropan-2-yl)-3,4-dihydro-1,4-methanopyrido[2,3-b][1,4]diazepine-5,7(2H)-dicarboxamide], in that order: greater than 150% and “B (EC1.5 1-25 μM)”.
The like results for `Cc1ncc(-c2ccnc(NC(=O)N3c4nc(C(=O)N[C@H](C)C(F)(F)F)cc(C)c4N4CC[C@H]3C4)c2)o1` [Example 252, (4S)-9-methyl-N5-(4-(2-methyloxazol-5-yl)pyridin-2-yl)-N7-((R)-1,1,1-trifluoropropan-2-yl)-3,4-dihydro-1,4-methanopyrido[2,3-b][1,4]diazepine-5,7(2H)-dicarboxamide] were, in that order, less than 150% and “A (EC1.5<1 μM)”.
The like results for `C#CC(C)(C)NC(=O)c1ccc2c(n1)N(C(=O)Nc1ccccn1)[C@H]1CCN2C1` [Example 253, (4S)—N7-(2-methylbut-3-yn-2-yl)-N5-(pyridin-2-yl)-3,4-dihydro-1,4-methanopyrido[2,3-b][1,4]diazepine-5,7(2H)-dicarboxamide] were, in that order, greater than 150% and “B (EC1.5 1-25 μM)”.
